Columns and labels:
Type in all cases: cell-based
[1] = system: A-549 (monolayer culture of a human lung carcinoma); test: Cytotoxic activity screening, A-549 cells; conditions: Homo sapiens, A549, 72 h, three days of incubation, Crystal Violet, approximate IC50
Experimental: (§1) Cell Cultures. Cells were maintained in logarithmic phase of growth in Eagle's Minimum Essential Medium, with Earle's Balanced Salts, with 2.0 mM L-glutamine, with non-essential amino acids, without sodium bicarbonate (EMEM/neaa); supplemented with 10% Fetal Calf Serum (FCS), 10^−2 M sodium bicarbonate and 0.1 g/l penicillin-G+streptomycin sulfate.
(§2) A simple screening procedure has been carried out to determine and compare the antitumour activity of these compounds, using an adapted form of the method described by Bergeron et al (1984). The tumour cell line employed have been P-388 (suspension culture of a lymphoid neoplasm from DBA/2 mouse), A-549 (monolayer culture of a human lung carcinoma), HT-29 (monolayer culture of a human colon carcinoma) and MEL-28 (monolayer culture of a human melanoma).
(§3) A-549, HT-29 and MEL-28 were seeded into 16 mm wells at 2×10^4 cells per well in 1 ml aliquots of MEM 10FCS containing the indicated concentration of drug. A separate set of cultures without drug was seeded as control growth to ensure that cells remained in exponential phase of growth. All determinations were carried out in duplicate. After three days of incubation at 37° C., 10% CO2 in a 98% humid atmosphere, the wells were stained with 0.1% Crystal Violet. An approximately IC50 was determined by comparing the growth in wells with drug to the growth in wells control.

[2] = system: HT-29 (monolayer culture of a human colon carcinoma); test: Cytotoxic activity screening, HT-29 cells; conditions: Homo sapiens, HT-29, 72 h, three days of incubation, Crystal Violet, approximate IC50
Experimental: as §1, §2, §3

[3] = system: P-388 (suspension culture of a lymphoid neoplasm from DBA/2 mouse); test: Cytotoxic activity screening, P-388 cells; conditions: Mus musculus, P388, 72 h, three days of incubation, approximate IC50
Experimental: as §1, §2
P-388 cell were seeded into 16 mm wells at 1×10^4 cells per well in 1 ml aliquots of MEM 5FCS containing the indicated concentration of drug. A separate set of cultures without drug was seeded as control growth to ensure that cells remained in exponential phase of growth. All determinations were carried out in duplicate.

[4] = system: MEL-28 (monolayer culture of a human melanoma); test: Cytotoxic activity screening, MEL-28 cells; conditions: SK-MEL-28, 72 h, three days of incubation, Crystal Violet, approximate IC50
Experimental: as §1, §2, §3

DU-145 = test: Cytotoxic activity screening, DU-145 cells; conditions: Homo sapiens, DU-145, DU-145 cells

Row | SMILES | IC50 [1] [µM] | IC50 [2] [µM] | IC50 [3] [µM] | IC50 [4] [µM] | IC50 (DU-145) [µM]
1 | C=CCOc1c(C)c2c(c3c1CC1[C@H]4c5c(cc(C)c(OC)c5OCOC)C[C@@H]([C@H](C#N)N1[C@H]3COC(CSCC1c3ccccc3-c3ccccc31)NC(=O)OC(C)(C)C)N4C)OCO2 (some centres unmarked) | > 1 | > 1 |  |  | 
2 | C=CCOc1c(C)c2c(c3c1CC1[C@H]4c5c(cc(C)c(OC)c5O)C[C@@H]([C@H](C#N)N1[C@H]3CO[Si](C)(C)C(C)(C)C)N4C)OCO2 (some centres unmarked) | > 1 | > 1 |  |  | 
3 | COCCOCOc1c(OC)c(C)cc2c1[C@@H]1C3Cc4c(O)c(C)c5c(c4[C@H](COC(CSCC4c6ccccc6-c6ccccc64)NC(=O)OC(C)(C)C)N3[C@@H](C#N)[C@H](C2)N1C)OCO5 (some centres unmarked) | 0.01 | 0.01 |  |  | 
4 | C=CCOC(=O)NC(CSCC1c2ccccc2-c2ccccc21)OC[C@H]1C2=C3OCOC3=C(C)C(=O)C2(O)CC2[C@H]3c4c(cc(C)c(OC)c4OCOCCOC)C[C@@H]([C@H](C#N)N21)N3C (some centres unmarked) | > 1 | > 1 |  |  | 
5 | C=CCOc1c(C)c2c(c3c1CC1[C@H]4c5c(cc(C)c(OC)c5O)C[C@@H]([C@H](C#N)N1[C@H]3CNC(=O)[C@H](C)NC(=S)Nc1ccccc1)N4C)OCO2 (some centres unmarked) | 0.01 | 0.01 | 0.01 | 0.01 | 
6 | COc1c(C)cc2c(c1O)[C@@H]1C3[C@@H]4SC[C@H](NC(=O)OCc5ccccc5)C(=O)OC[C@@H](c5c6c(c(C)c(OC(C)=O)c54)OCO6)N3[C@@H](C#N)[C@H](C2)N1C (some centres unmarked) | 0.0013 | 0.0013 |  |  | 
7 | COCCOCOc1c(OC)c(C)cc2c1[C@@H]1C3CC4(O)C(=O)C(C)=C5OCOC5=C4[C@H](COC(CSCC4c5ccccc5-c5ccccc54)NC(=O)OCc4ccccc4)N3[C@@H](C#N)[C@H](C2)N1C (some centres unmarked) | > 1 | > 1 |  |  | 
8 | C=CCOC(=O)N[C@@H]1CS[C@@H]2c3c(OC(C)=O)c(C)c4c(c3[C@H](COC1=O)N1C2[C@H]2c3c(cc(C)c(OC)c3OCOCCOC)C[C@@H]([C@@H]1C#N)N2C)OCO4 (some centres unmarked) | 0.012 | 0.012 |  |  | 
9 | C=CCOc1c(C)c2c(c3c1CC1[C@H]4c5c(cc(C)c(OC)c5OCOCCOC)C[C@@H]([C@H](C#N)N1[C@H]3COC(CSCC1c3ccccc3-c3ccccc31)NC(=O)OCc1ccccc1)N4C)OCO2 (some centres unmarked) | > 1 | > 1 |  |  | 
10 | COC1=C(C)C(=O)C2=C(C1=O)C(CNC(C)=O)N1C(C2)[C@H]2c3c(cc(C)c(OC)c3O)C[C@@H]([C@@H]1C#N)N2C (some centres unmarked) | 0.005 | 0.005 | 0.005 | 0.005 | 
11 | C=CCOc1c(C)c2c(c3c1CC1[C@H]4c5c(cc(C)c(OC)c5O)C[C@@H]([C@H](C#N)N1[C@H]3CN)N4C)OCO2 (some centres unmarked) | 0.019 | 0.019 | 0.019 | 0.019 | 
12 | COCCOCOc1c(OC)c(C)cc2c1[C@@H]1C3CC4(O)C(=O)C(C)=C5OCOC5=C4[C@H](COC(CSCC4c5ccccc5-c5ccccc54)NC(=O)OC(C)(C)C)N3[C@@H](C#N)[C@H](C2)N1C (some centres unmarked) | 0.051 | 0.051 |  |  | 
13 | COCOc1c(OC)c(C)cc2c1[C@@H]1C3Cc4c(O)c(C)c5c(c4[C@H](CNC(=O)[C@H](C)NC(=O)OC(C)(C)C)N3[C@@H](C#N)[C@H](C2)N1C)OCO5 (some centres unmarked) | 1.4 | 1.4 | 1.4 | 1.4 | 
14 | COCCOCOc1c(OC)c(C)cc2c1[C@@H]1C3Cc4c(O)c(C)c5c(c4[C@H](CO[Si](C)(C)C(C)(C)C)N3[C@@H](C#N)[C@H](C2)N1C)OCO5 (some centres unmarked) | > 1 | > 1 |  |  | 
15 | C=CCOC(=O)N[C@@H]1CS[C@@H]2c3c(OC(C)=O)c(C)c4c(c3[C@H](COC1=O)N1C2[C@H]2c3c(cc(C)c(OC)c3O)C[C@@H]([C@@H]1C#N)N2C)OCO4 (some centres unmarked) | 0.00015 |  |  |  | 
16 | C=CCOc1c(C)c2c(c3c1CC1[C@H]4c5c(cc(C)c(OC)c5O)C[C@@H]([C@H](C#N)N1[C@H]3CO)N4C)OCO2 (some centres unmarked) | 0.19 | 0.19 | 0.19 | 0.19 | 
17 | COc1c(C)cc2c(c1O)[C@@H]1C3[C@@H]4SCC(N)C(=O)OC[C@@H](c5c6c(c(C)c(OC(C)=O)c54)OCO6)N3[C@@H](C#N)[C@H](C2)N1C (some centres unmarked) | 0.008 | 0.008 | 0.008 | 0.008 | 
18 | C=CCOc1c(C)c2c(c3c1CC1[C@H]4c5c(cc(C)c(OC)c5O)C[C@@H]([C@H](C#N)N1[C@H]3COC(CSCC1c3ccccc3-c3ccccc31)NC(=O)OC(C)(C)C)N4C)OCO2 (some centres unmarked) | 0.0055 | 0.0055 |  |  | 

Row | SMILES | IC50 [1] [µM] | IC50 [2] [µM] | IC50 [3] [µM] | IC50 [4] [µM] | IC50 (DU-145) [µM]
19 | COc1c(C)cc2c(c1O)[C@@H]1C3[C@@H]4SCC(=O)C(=O)OC[C@@H](c5c6c(c(C)c(OC(C)=O)c54)OCO6)N3[C@@H](C#N)[C@H](C2)N1C (some centres unmarked) | 0.01 | 0.01 | 0.01 | 0.01 | 
20 | C=CCOc1c(C)c2c(c3c1CC1[C@H]4c5c(cc(C)c(OC)c5OCOCCOC)C[C@@H]([C@H](C#N)N1[C@H]3COC(CSCC1c3ccccc3-c3ccccc31)NC(=O)OC(C)(C)C)N4C)OCO2 (some centres unmarked) | > 1 | > 1 |  |  | 
21 | COc1c(C)cc2c(c1O)[C@@H]1C3Cc4c(OC(C)=O)c(C)c5c(c4[C@H](CNC(=O)CC(C)C)N3[C@@H](C#N)[C@H](C2)N1C)OCO5 (some centres unmarked) | 0.001 |  | 0.0008 | 0.0008 | 0.001
22 | COC1=C(C)C(=O)C2=C(C1=O)[C@H](CNC(=O)[C@H](C)NC(=O)OC(C)(C)C)N1C(C2)[C@H]2c3c(cc(C)c(OC)c3O)C[C@@H]([C@@H]1C#N)N2C (some centres unmarked) | > 0.15 | 0.15 | 0.15 | > 0.15 | 
23 | COCCOCOc1c(OC)c(C)cc2c1[C@@H]1C3CC4(O)C(=O)C(C)=C5OCOC5=C4[C@H](CO[Si](C)(C)C(C)(C)C)N3[C@@H](C#N)[C@H](C2)N1C (some centres unmarked) | > 1 | > 1 |  |  | 
24 | C=CCOc1c(C)c2c(c3c1CC1[C@H]4c5c(cc(C)c(OC)c5OCOCCOC)C[C@@H]([C@H](C#N)N1[C@H]3CO[Si](C)(C)C(C)(C)C)N4C)OCO2 (some centres unmarked) | > 1 | > 1 |  |  | 
25 | C=CCOc1c(C)c2c(c3c1CC1[C@H]4c5c(cc(C)c(OC)c5O)C[C@@H]([C@H](C#N)N1[C@H]3CNC(=O)[C@H](C)N)N4C)OCO2 (some centres unmarked) | 0.16 | 0.01 | 0.08 | 0.16 | 
26 | COCCOCOc1c(OC)c(C)cc2c1[C@@H]1C3CC4(O)C(=O)C(C)=C5OCOC5=C4[C@H](CO)N3[C@@H](C#N)[C@H](C2)N1C (some centres unmarked) | > 1 | > 1 |  |  | 
27 | COCOc1c(OC)c(C)cc2c1[C@@H]1C3CC4=C(C(=O)C(OC)=C(C)C4=O)[C@H](CNC(=O)[C@H](C)NC(=O)OC(C)(C)C)N3[C@@H](C#N)[C@H](C2)N1C (some centres unmarked) | 1.44 | 1.44 | 1.44 | 1.44 | 
28 | COCOc1c(OC)c(C)cc2c1[C@@H]1C3CC4(O)C(=O)C(C)=C5OCOC5=C4[C@H](COC(CSCC4c5ccccc5-c5ccccc54)NC(=O)OC(C)(C)C)N3[C@@H](C#N)[C@H](C2)N1C (some centres unmarked) | > 1 | > 1 |  |  | 
29 | COCOc1c(OC)c(C)cc2c1[C@@H]1C3CC4=C(C(=O)C(O)=C(C)C4=O)[C@H](CNC(=O)[C@H](C)NC(=O)OC(C)(C)C)N3[C@@H](C#N)[C@H](C2)N1C (some centres unmarked) | > 1.5 | > 1.5 | > 1.5 | > 1.5 | 
30 | COCCOCOc1c(OC)c(C)cc2c1[C@@H]1C3[C@@H]4SC[C@@H](NC(=O)OC(C)(C)C)C(=O)OC[C@@H](c5c6c(c(C)c(OC(C)=O)c54)OCO6)N3[C@@H](C#N)[C@H](C2)N1C (some centres unmarked) | 0.012 |  |  |  | 
31 | COCCOCOc1c(OC)c(C)cc2c1[C@@H]1C3[C@@H]4SC[C@H](NC(=O)OCc5ccccc5)C(=O)OC[C@@H](c5c6c(c(C)c(OC(C)=O)c54)OCO6)N3[C@@H](C#N)[C@H](C2)N1C (some centres unmarked) | 0.59 | 0.59 |  |  | 
32 | C=CCOc1c(C)c2c(c3c1CC1[C@H]4c5c(cc(C)c(OC)c5O)C[C@@H]([C@H](C#N)N1[C@H]3COC(CSCC1c3ccccc3-c3ccccc31)NC(=O)OCc1ccccc1)N4C)OCO2 (some centres unmarked) | 0.11 | 0.11 |  |  | 
33 | C=CCOc1c(C)c2c(c3c1CC1[C@H]4c5c(cc(C)c(OC)c5OCOC)C[C@@H]([C@H](C#N)N1[C@H]3CNC(=O)[C@H](C)NC(=O)OC(C)(C)C)N4C)OCO2 (some centres unmarked) | 0.01 | 0.01 | 0.01 | 0.01 | 
34 | COCCOc1c(OC)c(C)cc2c1[C@@H]1C3[C@@H]4SC[C@H](NC(=O)OCc5ccccc5)C(=O)OC[C@@H](c5c6c(c(C)c(OC(C)=O)c54)OCO6)N3[C@@H](C#N)[C@H](C2)N1C (some centres unmarked) | 0.062 | 0.062 |  |  | 
35 | COc1c(C)cc2c(c1O)[C@@H]1C3Cc4c(OC(C)=O)c(C)c5c(c4[C@H](CNC(=O)/C=C/c4cccc(C(F)(F)F)c4)N3[C@@H](C#N)[C@H](C2)N1C)OCO5 (some centres unmarked) | 0.0001 |  | 0.0001 | 0.0001 | 

From patent publication US7420051B2, “Synthetic process for the manufacture of an ecteinaschidin compound” (Pharma Mar, S.A., priority 2000, dated 2008)
